Source: patent US8673882B2, “Inhibitors of autotaxin” (University of Tennessee Research Foundation, priority 2011, dated 2014)

How the values were obtained:
[1] = system: MM1 hepatocarcinoma cells; assay: Invasion of mesothelial cell monolayer by MM1 cells; type: cell-based, rat
Text: (§1) Cancer metastasis is a complex process that cannon be accurately modeled in vitro. Models that utilize cellular monolayers for the invasion of carcinoma cell come the closest to the situation in vivo. Two different cell monolayers, mouse mesothelium and human vascular endothelium were used to examine the role of ATX in the invasion of MM1 hepatocarcinoma cells and the reduction of such invasion by the chemical compounds of the present application. The mesothelial monolayer is an accepted model for invasion of body cavities lined by serous cells whereas, the HUVEC monolayer is considered to be an in vitro model of hematogenous invasion of carcinomas.
(§2) Highly invasive MM1 cells originally isolated from the AH130 rat hepatoma cells were utilized in these studies. The cells were grown in suspension in DMEM supplemented with 10% fetal bovine serum, 2 mM glutamine, 100 units/ml penicillin and 10 μg/ml streptoinycin. Mesothelial cells were isolated and cultured from C57BL/6 mice. Human umbilical cord vascular endothelial cells (HUVEC) were obtained from VEC Technologies Inc., (Rensselaer, N.Y., USA) and were grown in MCDB-131 complete medium containing 10% fetal bovine serum. 90 μg/ml heparin, 10 ng/ml EGF, 1 μg/ml hydrocortisone, 0.2 mg/ml EndoGrowth supplement, 100 units/ml penicillin G, 100 μg/ml streptomycin and 25 μg/ml amphotericin B (all from VEC Technologies). Tumor cell invasion was performed by seeding 1.3×10^5 HUVECs (passage 7) into each well of a 12-well plate pre-coated with 0.2% gelatin (Sigma) and cultured for 2 days to form a confluent monolayer. Mesothelial cells harvested from two-three mice were initially plated in 6-well plates and grown to confluency in DMEM medium supplemented with 10% fetal bovine serum in the presence of 100 units/ml penicillin G and 10 μg/ml streptomycin. When confluent, the mesothelial cells were split into three equal aliquots (˜5×10^4 cells each) and plated to three wells of a 12-well plate and grown to confluence.
Invasion of MM1 cells of Example 53 was determined and the effect of compounds of the present application in reducing the invasion was determined. For all invasion assays, MM1 cells were pre-stained with 2 μg/ml calcein AM (Invitrogen, USA) for 2 h, rinsed once, and seeded at a density of 5×10^4 cells/well over the monolayers. […] The number of tumor cells that penetrated the monolayer was photographed under a NIKON TiU inverted microscope using phase-contrast and fluorescence illumination in a minimum of five non-overlapping fields at 100× magnification. The fluorescent images were overlayed on top of the phase contrast images using the Elements BR software (version 3.1x) and the invaded MM1 cells showing the characteristic flattened morphology in the plane of focus underneath the monolayer were counted. […]

[2] = system: MM1 hepatocarcinoma cells; assay: Invasion of HUVEC monolayer by MM1 cells; type: cell-based, rat; conditions: 1.5 μM LPC; FIG. 14
Text: as §1, §2
Invasion of MM1 cells of Example 53 was determined and the effect of compounds of the present application in reducing the invasion was determined. For all invasion assays, MM1 cells were pre-stained with 2 μg/ml calcein AM (Invitrogen, USA) for 2 h, rinsed once, and seeded at a density of 5×10^4 cells/well over the monolayers. Tumor cells were left to invade the HUVEC monolayer for 24 h in MCDB-131 complete media containing 1% serum with or without addition of 1.5 μM LPC. MM1 cells were plated on the mesothelial monolayers in 2% fetal bovine serum-supplemented DMEM medium in the presence of 100 units/ml penicillin G and 10 μg/ml streptomycin with or without 1.5 μM LPC (5 μM for the mesothelium cells) and invasion was allowed to proceed for 20 h. The day after MM1 cell seeding, non-invaded tumor cells were removed by repeated five rinses of the HUVEC monolayer (three rinses for the mesothelial monolayers) with PBS (containing Ca^2+ and Mg^2+) followed by fixation with 10% buffered formalin. The number of tumor cells that penetrated the monolayer was photographed under a NIKON TiU inverted microscope using phase-contrast and fluorescence illumination in a minimum of five non-overlapping fields at 100× magnification. The fluorescent images were overlayed on top of the phase contrast images using the Elements BR software (version 3.1x) and the invaded MM1 cells showing the characteristic flattened morphology in the plane of focus underneath the monolayer were counted. […]

breast and colon cancers = conditions: xenograft models, Zhang et al 2009; cited from earlier work

In the case of `CCCCCCCCCCCCCc1ccc2cc(CP(=O)(OC)OC)ccc2c1` [Compound 33b, Dimethyl-6-tridecylnaphthalen-2-yl-methylphosphonate], the “MM1 cell invasion of the mesothelial monolayer” value ([1]; with LPC, FIG. 12 panel E) is reported as “inhibition” and the “LPC-dependent invasion of the HUVEC monolayer” value [2] is reported as “blockage”.

In the case of LPA bromophosphonate [LPA-BP], the “metastasis of breast and colon cancers” value (breast and colon cancers) is listed as “inhibit the metastasis”.

For “lysophosphatidylcholine [LPC, reference compound]”, the “effect of LPC on invasion in the co-culture” value ([1]; FIG. 12d, mesothelial cell layers) was “increases invasion in a dose-dependent manner”.
